The values that follow come from article PMC9578396, “Intrinsic Antibacterial Activity of Xeruborbactam In Vitro: Assessing Spectrum and Mode of Action” (Antimicrobial Agents and Chemotherapy, 2022).

≈ marks a conversion by molar mass, not a printed value. Where two headings read alike, the source gives them in different places.

One may read the MIC as the lowest concentration that inhibits growth of the organism. By MIC50 is commonly meant the lowest concentration that inhibits either 50% of growth or 50% of the strains tested, depending on the study. Read a low MIC50 as greater potency. The MIC90 is the lowest concentration that inhibits either 90% of growth or 90% of the strains tested, depending on the study. A higher MIC90 goes with weaker potency. In general, IC50 refers to the concentration that inhibits the measured activity by half.

For one experiment, the system named is Klebsiella oxytoca. The experiment is described as follows: Broth microdilution MIC (CLSI), Klebsiella oxytoca. Type of experiment: cell-based. From the text: Bacterial isolates were subjected to broth microdilution susceptibility testing, performed according to Clinical and Laboratory Standards Institute (CLSI) methods ([46]), using panels prepared in-house. Meropenem was purchased from Sandoz, and all other antibiotics were from Sigma-Aldrich. Xeruborbactam was synthesized at Qpex Biopharma, San Diego, CA. Avibactam was purchased from eNovation Chemicals LLC, Bridgewater, NJ, USA; zidebactam was from MedKoo Biosciences, Inc., Morrisville, NC, and nacubactam was from Advanced ChemBlocks, Hayward, CA. Durlobactam was synthesized at Acme Bioscience, Palo Alto, CA, USA.

A further experiment concerns the target PBP1b (Pseudomonas aeruginosa, UniProt G3XD31). Kind of experiment: Gel-based Bocillin FL competition PBP binding assay. The protocol: (§1) Ten milliliters of overnight bacterial culture was inoculated in 1 L of LB medium and grown to an OD600 of 0.7 to 0.9. The cell pellet was washed once with 50 mL of solution containing 100 mM Na-phosphate at pH 7.0 and 100 mM NaCl and resuspended in 10 mL of the same buffer with one tablet of EDTA-free mini-protease inhibitor and 10 mg of lysozyme. Cell suspensions were incubated for 45 min at 37°C, and then 200 μL of DNase I was added along with MgSO4 (to a final concentration of 10 mM), followed by three cycles of freeze-thawing (10 min and 20 min, respectively). Four cycles of sonication at maximum power were performed next, each cycle lasting for 30 s with 1 min on ice between cycles. The cell suspension was centrifuged at 12,000 × g for 10 min at 4°C. The supernatant was collected and centrifuged at 100,000 × g for 45 min at 4°C. The pellet was washed three times with 10 mL of 100 mM Na-phosphate, pH 7.0, by resuspension and subsequent centrifugation at 100,000 × g for 10 min at 4°C. The pellet was finally resuspended in 1.5 mL of 100 mM Na-phosphate, pH 7.0, and passed several times through a Dounce homogenizer (tight pestle). Membrane preparations were aliquoted and kept at −80°C.
(§2) Five microliters of total bacterial membrane preparation was mixed with 5 μL of a test compound at a desired concentration in 100 mM Na-phosphate buffer, pH 7.0. Incubation of bacterial membrane preparations with control beta-lactams was performed for 10 min at 30°C; xeruborbactam was incubated with membrane preparations for 1 h at 30°C. Five microliters of 150 μM Bocillin FL fluorescent probe (Thermo Fisher Scientific) was added, and the reaction mixture was incubated for an additional 10 min at 30°C in the case of beta-lactams or for 20 min on ice (0°C) in the case of xeruborbactam. […] At the end of the incubation step, 15 μL of 2× SDS sample loading buffer was added, and the reaction mixture was incubated for 5 min at 95°C. Twenty-five microliters of the reaction mixture was then loaded on an 8% SDS Tris-glycine gel (Thermo Fisher Scientific). At the end of the run, the gel was briefly rinsed with water and fixed in 10% acetic acid, 40% methanol for 20 min. After an additional wash in water for 30 min, the gel was scanned on a Typhoon Trio+ Imager using a blue laser filter (excitation, 488 nm, and emission, 520 nm). Densitometry of the gel images was performed using ImageQuant software (Molecular Dynamics). IC50 values were calculated with Prism software (GraphPad).

The next experiment addresses T1, PBP2 (Acinetobacter baumannii, UniProt D0C8Z9).
T1 construct: endogenous in cells
T1 sequence (D0C8Z9 1-672): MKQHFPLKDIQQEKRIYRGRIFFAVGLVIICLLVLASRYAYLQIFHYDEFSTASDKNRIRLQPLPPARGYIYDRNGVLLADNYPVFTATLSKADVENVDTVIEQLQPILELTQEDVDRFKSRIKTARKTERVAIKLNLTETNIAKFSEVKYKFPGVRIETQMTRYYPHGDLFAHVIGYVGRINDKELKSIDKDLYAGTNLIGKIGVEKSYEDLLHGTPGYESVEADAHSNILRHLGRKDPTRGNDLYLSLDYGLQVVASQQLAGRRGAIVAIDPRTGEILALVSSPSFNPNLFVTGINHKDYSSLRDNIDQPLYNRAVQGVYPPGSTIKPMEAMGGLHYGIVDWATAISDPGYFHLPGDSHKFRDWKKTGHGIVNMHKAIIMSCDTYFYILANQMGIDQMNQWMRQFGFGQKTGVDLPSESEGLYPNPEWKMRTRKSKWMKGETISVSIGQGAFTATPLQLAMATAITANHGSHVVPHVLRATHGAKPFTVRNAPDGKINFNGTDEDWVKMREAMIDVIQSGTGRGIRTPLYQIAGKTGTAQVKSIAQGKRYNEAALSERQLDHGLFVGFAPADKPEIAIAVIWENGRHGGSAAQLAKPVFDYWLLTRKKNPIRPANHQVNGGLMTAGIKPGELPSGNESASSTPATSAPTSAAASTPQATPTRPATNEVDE
The description is as above. The settings on record: A. baumannii ACM1320 membranes; Bocillin FL step 0°C for xeruborbactam, 30°C for beta-lactams; read-out: Relative binding IC50, PBP2. How it is done: as §1, §2

For experiment [1], the system named is A. baumannii strain AB1007. The following applies: xeruborbactam at ≥2× MIC, 48 h at 37°C. How it is done:
(§3) Beta-lactamase-negative strains of E. coli (strain ECM5497), A. baumannii (strain AB1007), and K. pneumoniae (strain KPM1026a) were used in resistance development studies. […] […] Single colonies from xeruborbactam-containing plates were grown twice on a nonselective medium before their antimicrobial-resistance levels were assessed. For K. pneumoniae KPM1026a, several independent cultures were used in resistance studies.

For the next experiment, the system named is E. coli strain ECM5497. The settings on record: xeruborbactam at ≥2× MIC, 48 h at 37°C. The protocol: as §3
Experiment [2] concerns K. pneumoniae strain KPM1026a. The experiment is described as follows: Fluorescence microscopy, cellular morphology. The class given is cell-based, Klebsiella pneumoniae. The following applies: treated at 1× and 2× MIC, 1 to 2 h, 30°C. The protocol:
Single colonies of K. pneumoniae strain KPM1026a, A. baumannii strain ATCC 17978, and P. aeruginosa strain PAM1154 were picked from LB agar plates, inoculated in cation-adjusted Mueller-Hinton broth (CA-MHB), and incubated overnight at 30°C with rolling. Overnight cultures were diluted into fresh CA-MHB and incubated at 30°C, with rolling, until they reached an OD600 of ≈0.12 to 0.15 (equivalent to ~2 × 10^8 CFU/mL). Samples were then treated with compounds and incubated at 30°C, with rolling. After 1 or 2 h of treatment, cells were collected and stained with a dye mix containing FM4-64 (1 μg/mL), DAPI (4′,6-diamidino-2-phenylindole) (2 μg/mL), and SYTOX green (0.5 μM) (Molecular Probes, Invitrogen, or Thermo Fisher Scientific). Cells were transferred onto an agarose pad containing 1.2% agarose and 20% LB medium for microscopy. Microscopy was performed as previously described ([34]).

[3] abbreviates: Klebsiella oxytoca, 23 isolates.

Chain of PBP1b (G3XD31 entry or part of it): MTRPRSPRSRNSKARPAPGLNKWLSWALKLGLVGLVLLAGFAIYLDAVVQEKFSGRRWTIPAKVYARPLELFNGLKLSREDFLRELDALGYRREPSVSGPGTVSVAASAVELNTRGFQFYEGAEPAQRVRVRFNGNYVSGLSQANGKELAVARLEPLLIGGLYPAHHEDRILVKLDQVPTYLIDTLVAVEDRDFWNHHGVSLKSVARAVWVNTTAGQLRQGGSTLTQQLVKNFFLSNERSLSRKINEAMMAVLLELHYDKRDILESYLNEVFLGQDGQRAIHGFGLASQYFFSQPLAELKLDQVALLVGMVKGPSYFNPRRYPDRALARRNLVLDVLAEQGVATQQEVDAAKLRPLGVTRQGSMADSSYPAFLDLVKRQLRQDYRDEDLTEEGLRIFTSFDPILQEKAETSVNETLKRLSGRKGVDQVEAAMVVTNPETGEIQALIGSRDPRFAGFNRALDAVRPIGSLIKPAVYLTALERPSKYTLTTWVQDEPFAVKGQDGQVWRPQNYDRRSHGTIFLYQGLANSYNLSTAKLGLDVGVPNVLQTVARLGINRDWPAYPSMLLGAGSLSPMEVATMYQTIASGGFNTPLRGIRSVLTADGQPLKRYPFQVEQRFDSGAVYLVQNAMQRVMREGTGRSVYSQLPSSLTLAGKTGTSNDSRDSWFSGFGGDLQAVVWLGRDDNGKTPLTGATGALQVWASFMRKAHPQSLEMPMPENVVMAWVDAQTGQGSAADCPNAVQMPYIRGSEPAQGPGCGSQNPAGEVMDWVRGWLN

Consider `O=C(O)c1c(F)ccc2c1OB(O)[C@@H]1C[C@H]21` [Xeruborbactam], for which the MIC in the experiment with Klebsiella oxytoca (Klebsiella oxytoca isolates, read-out: highest MIC observed) is 32 µg/mL (≈ 144 µM). In addition, the MIC50 in the experiment on Klebsiella oxytoca (setting [3]) was 8 µg/mL (≈ 36 µM). In addition, in the experiment on Klebsiella oxytoca (setting [3]), the MIC90 turned out to be 16 µg/mL (≈ 72.1 µM). This compound also had an MIC range in the experiment with Klebsiella oxytoca (setting [3]) of 8 to 32 µg/mL. Further, the IC50 at PBP1b (P. aeruginosa PAM3034 membranes; Bocillin FL step 0°C for xeruborbactam, 30°C for beta-lactams; listed as xeruborbactam; read-out: Relative binding IC50, PBP1b) came out at 7100 ± 800 nM; on PBP1b (P. aeruginosa PAM3034 membranes; Bocillin FL step 0°C for xeruborbactam, 30°C for beta-lactams; read-out: Relative binding IC50, PBP1b), 1900 ± 200 nM; at PBP2 it was 23000 ± 2000 nM. The “frequency of resistance (FOR)” value (in experiment [1]; in the experiment with E. coli strain ECM5497) was < 2 × 10^−9 in each case. Further, the cellular morphology entry in experiment [2] was “increased cell length relative to that of the untreated controls and bulges that developed at midcell”.

In the case of `C[C@@H](O)[C@H]1C(=O)N2C(C(=O)O)=C(S[C@@H]3CN[C@H](C(=O)N(C)C)C3)[C@H](C)[C@H]12` [Meropenem], the IC50 worked out at 230 nM at PBP1b (read-out: Relative binding IC50, PBP1b; P. aeruginosa PAM3034 membranes; Bocillin FL step 0°C for xeruborbactam, 30°C for beta-lactams) and 11 nM on PBP2.
